Experiments:
IL-17, TNFα, IL-4 = assay: Lung cytokine levels by cytometric bead array; format: in vivo; details: ova s/c mice
Source text: The change of cytokine expression caused by compounds may be investigated in the lung of Ova S/C mice. Therefore, lungs of treated and non-treated asthmatic mice may be harvested, homogenized and cleared by centrifugation. Cytokines may be identified and quantified with specific antibodies and flow cytometry.
Anti-inflammatory properties of compounds in respect to cytokine production were investigated after the AHR measurement by harvesting the lungs of treated and non-treated Ova S/C mice (N=10). Whole lungs were homogenized in 200 μL of T-PER® tissue protein extraction reagent (Thermo Fisher Scientific Inc., Rockford, Ill.) containing 1× protease inhibitor cocktail using a hand-held tissue homogenizer. Homogenized lung samples were centrifuged at 10,000 RPM for 5 minutes to pellet cell/tissue debris. Tissue supernatant was collected for cytokine analysis using BD cytometric bead array mouse Th1/Th2/Th17 cytokine kit (BD Biosciences, San Jose, Calif.) following manufacturer's instruction. Data were analyzed using GraphPad Prism 4 (GraphPad Software, San Diego, Calif.) and expressed as mean±SEM. One-way analysis of variance (ANOVA) with Dunnet post hoc test was performed for statistical difference for multiple groups. […] Data represent mean±SEM from 10 mice in each group. *, **, and *** indicate p<0.05, p<0.01, and p<0.001 significance. The ova s/c mice expressed higher levels of IFN-γ, IL-6, and IL-2 but the change was not significant in comparison to normal mice.

[1] = tested on: human airway smooth muscle; assay: Relaxation of acetylcholine contracted human airway smooth muscle strips; details: EC50 acetylcholine, 100 μM compound, 15-60 minutes
[2] = tested on: GABAA receptor subtypes α1β3γ2, α2β3γ2, α3β3γ2, α4β3γ2 and α5β3γ2; assay: Two-electrode voltage clamp, modulation of GABA (EC3-5) elicited currents in Xenopus oocytes; format: cell-based
Source text: Compounds having selective activity bias for α4 and α5-GABAAR can be identified. Patch clamp assays are used to quantify chloride flux induced inward currents resulting from agonism of GABAAR containing single α-subunits. […] For electrophysiological experiments with Xenopus oocytes (Ramerstorfer et al. European journal of pharmacology 2010, 636, 8-27) mature female Xenopus laevis (Nasco, Fort Atkinson, Wis., USA) were anaesthetized in a bath of ice-cold 0.17% Tricain (Ethyl-m-aminobenzoate) before decapitation and transfer of the frog's ovary to ND96 medium (96 mM NaCl, 2 mM KCl, 1 mM MgCl2, 5 mM HEPES; pH 7.5). Following incubation in 1 mg/ml collagenase (Sigma-Aldrich, St. Louis, Mo., USA) for 30 minutes, stage 5 to 6 oocytes were singled out of the ovary and defolliculated using a platinum wire loop. […] Maximum currents measured in mRNA injected oocytes were in the microampere range for all receptor subtypes. […] Data were digitized using a Digidata 1322A or 1550 data acquisition system (Axon Instruments, Union City, Calif., USA), recorded using Clampex 10.5 software (Molecular Devices, Sunnyvale, Calif., USA), and analyzed using Clampfit 10.5 and GraphPad Prism 6.0 (La Jolla, Calif., USA) software. […]

| Compound | level of IL-4 in the mouse lung (IL-17, TNFα, IL-4) | level of IL-17 in the mouse lung (IL-17, TNFα, IL-4) | level of TNFα in the mouse lung (IL-17, TNFα, IL-4) | human airway smooth muscle contractile force [1] | GABAA receptor subtype selectivity, modulation of GABA elicited currents [2] |
| --- | --- | --- | --- | --- | --- |
| C[C@H]1N=C(c2ccccc2F)c2cc(Br)ccc2-n2cnc(C(=O)O)c21 [GL-II-93, (R)-8-bromo-6-(2-fluorophenyl)-4-methyl-4H-benzo[f]imidazo[1,5-a][1,4]diazepine-3-carboxylic acid] | reduced the levels of IL-17, TNFα, and IL-4 | reduced the levels of IL-17 | reduced the levels of IL-17, TNFα | – | – |
| C#Cc1ccc2c(c1)C(c1ccccc1F)=N[C@H](C)c1c(C(=O)O)ncn1-2 [SH-053-2′F-R-CH3-Acid, (R)-8-ethynyl-6-(2-fluorophenyl)-4-methyl-4H-benzo[f]imidazo[1,5-a][1,4]diazepine-3-carboxylic acid] | – | – | – | reduced the constriction of human airway smooth muscle after 15 minutes for a period of at least 60 minutes | positive α5β3γ2-selective GABAA receptor modulator |

Reference: patent US11447495B2, “Substituted benzo[f]imidazo[1,5-a][1,4]diazepines as GABA(a) receptor modulators” (priority 2016, dated 2022)
